For this assay, the target named is V2 (Homo sapiens, UniProt P30518). The assay is described as follows: In vitro recombinant vasopressin receptor binding assay (V2 Bdg), displacement of 3H-arginine vasopressin. Details: expressed in transfected cells; host or cells: HEK-293. The note with it: for IC50: membrane with cloned human V-2 receptor (HEK-293); for inhibition at 0.1 µM: read-out: V2 Bdg % inh; for V2 Bdg % inh: 0.1 uM, printed in parentheses in place of IC50. The protocol: In vitro Recombinant Vasopressin Receptor Binding Assay
V2, sequence (P30518 whole entry): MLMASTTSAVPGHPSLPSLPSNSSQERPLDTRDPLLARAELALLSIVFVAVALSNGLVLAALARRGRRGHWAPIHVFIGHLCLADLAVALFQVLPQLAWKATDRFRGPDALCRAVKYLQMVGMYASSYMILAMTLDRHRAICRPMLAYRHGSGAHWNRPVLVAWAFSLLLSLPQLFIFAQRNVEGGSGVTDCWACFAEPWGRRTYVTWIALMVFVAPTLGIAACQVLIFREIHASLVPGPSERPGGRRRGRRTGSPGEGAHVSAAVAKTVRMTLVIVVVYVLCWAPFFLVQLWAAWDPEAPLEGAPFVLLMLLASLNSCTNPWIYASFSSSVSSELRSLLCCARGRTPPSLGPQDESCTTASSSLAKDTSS
Compounds were assessed for their ability to displace ^3H-arginine vasopressin from the human V-1 or V-2 receptor in HEK-293 cells. […] Into wells of 96-well round bottom polypropylene plates were added buffer, test compound, membrane (containing cloned human V-1 or V-2 receptor), and ^3H-vasopressin. The reaction plates were allowed to sit at room temperature for one hour. The samples were filtered through Unifilter GF/C plates (presoaked in 0.3 polyethyleneimine). The plates were washed 5 times with cold physiological saline containing 0.05% Tween 20. After drying, the bottom of the filter plates were sealed and 0.025 ml of Microscint-20 was added to each filter. The top of the plate was sealed, and the plate was counted.
For orientation: In a radioligand displacement assay an active substance lowers the binding of a labelled ligand.

Data on 24 compounds can be found in patent publication US6713475B2, “Tricyclic benzodiazepines as vasopressin receptor antagonists” (Ortho-McNeil Pharmaceutical, Inc., priority 1999, dated 2004).

The term IC50 denotes the point on the concentration scale where inhibition reaches its midpoint.

“And” between values parts separate entries of the source, which are not always exact repeats. Equal entries are not always repeated.

For the compound `Cc1ccc(-c2ccccc2C(=O)Nc2ccc(C(=O)N3CC4COCCN4Cc4ccccc43)cc2)cc1` (racemic) [Compound 12, (RS)-2-(4-Methyl-phenyl)-N-[4-(1,3,4,12a-tetrahydro-6H-[1,4]oxazino[4,3-a][1,4]-benzodiazepin-11(12H)-yl-carbonyl)phenyl]benzamide], the IC50 is 6 nM.
As to `Cc1cccc2c1N(C(=O)c1ccc(NC(=O)c3ccccc3-c3ccccc3)cc1)CC1CSCCN1C2` (racemic) [Compound 39, (RS)-2-Phenyl-N-[4-(10-methyl-1,3,4,12a-tetrahydro-6H-[1,4]thiazino[4,3-a][1,4]-benzodiazepin-11(12H)-yl-carbonyl)phenyl]benzamide], the inhibition at 0.1 µM worked out at 37%.
On the same count and under the same terms, the same measure for `COc1cccc2c1N(C(=O)c1ccc(NC(=O)c3ccccc3-c3ccccc3)cc1)CC1CSCCN1C2` (racemic) [Compound 40, (RS)-2-Phenyl-N-[4-(10-methoxy-1,3,4,12a-tetrahydro-6H-[1,4]thiazino[4,3-a][1,4]-benzodiazepin-11(12H)-yl-carbonyl)phenyl]benzamide]: 12%.
As for `O=C(Nc1ccc(C(=O)N2CC3CSCCN3Cc3ccccc32)c(Cl)c1)c1ccccc1-c1ccsc1` (racemic) [Compound 50, (RS)-2-(3-Thienyl)-N-[3-chloro-4-(1,3,4,12a-tetrahydro-6H-[1,4]thiazino[4,3-a][1,4]-benzodiazepin-11(12H)-yl-carbonyl)phenyl]benzamide], the IC50 turned out to be 40 nM.
Take `O=C(Nc1ccc(C(=O)N2CC3CSCCN3Cc3ccccc32)c(F)c1)c1ccccc1-c1ccsc1` (racemic) [Compound 51, (RS)-2-(3-Thienyl)-N-[3-fluoro-4-(1,3,4,12a-tetrahydro-6H-[1,4]thiazino[4,3-a][1,4]-benzodiazepin-11(12H)-yl-carbonyl)phenyl]benzamide]: the “V2 Bdg % inh” value was “(62%/0.1 uM)”.
In the case of `O=C(Nc1ccc(C(=O)N2CC3CSCCN3Cc3ccccc32)cc1)c1ccccc1-c1cccs1` (racemic) [Compound 52, (RS)-2-(2-Thienyl)-N-[4-(1,3,4,12a-tetrahydro-6H-[1,4]thiazino[4,3-a][1,4]-benzodiazepin-11(12H)-yl-carbonyl)phenyl]benzamide], the “V2 Bdg % inh” value is “(36%/0.1 uM)”.
`Cc1csc(-c2ccccc2C(=O)Nc2ccc(C(=O)N3CC4CSCCN4Cc4ccccc43)cc2)c1` (racemic) [Compound 53, (RS)-2-(4-Methyl-2-thienyl)-N-[4-(1,3,4,12a-tetrahydro-6H-[1,4]thiazino[4,3-a][1,4]-benzodiazepin-11(12H)-yl-carbonyl)phenyl]benzamide]: the IC50 came out at 15 nM.
On to `Cc1csc(-c2ccccc2C(=O)Nc2ccc(C(=O)N3CC4COCCN4Cc4ccccc43)cc2)c1` (racemic) [Compound 54, (RS)-2-(4-Methyl-2-thienyl)-N-[4-(1,3,4,12a-tetrahydro-6H-[1,4]oxazino[4,3-a][1,4]-benzodiazepin-11(12H)-yl-carbonyl)phenyl]benzamide], for which the inhibition at 0.1 µM came to 57%.
Regarding `O=C(Nc1ccc(C(=O)N2CC3CS(=O)(=O)CCN3Cc3ccccc32)cc1)c1ccccc1-c1ccccc1` (racemic) [Compound 55, (RS)-2-Phenyl-N-[4-(1,3,4,12a-tetrahydro-2,2-dioxo-6H-[1,4]thiazino[4,3-a][1,4]-benzodiazepin-11(12H)-yl-carbonyl)phenyl]benzamide], the IC50 was 140 nM.
On to `CN1CCN2Cc3ccccc3N(C(=O)c3ccc(NC(=O)c4ccccc4-c4ccccc4)cc3Cl)CC2C1` (racemic) [Compound 56, (RS)-2-Phenyl-N-[3-chloro-4-(1,3,4,12a-tetrahydro-2-methyl-6H-[1,4]pyrazino[4,3-a][1,4]-benzodiazepin-11(12H)-yl-carbonyl)phenyl]benzamide], for which the half-inhibitory concentration (IC50) is 35 nM and 54 nM; the inhibition at 0.1 µM was 71%.
In the case of `O=C(Nc1ccc(C(=O)N2CC3CN(Cc4ccccc4)CCN3Cc3ccccc32)cc1)c1ccccc1-c1ccccc1` (racemic) [Compound 57, (RS)-2-Phenyl-N-[4-(1,3,4,12a-tetrahydro-2-benzyl-6H-[1,4]pyrazino[4,3-a][1,4]-benzodiazepin-11(12H)-yl-carbonyl)phenyl]benzamide], the “V2 Bdg % inh” value is on record as “(25%/0.1 uM)”.
As to `O=C(Nc1ccc(C(=O)N2CC3CNCCN3Cc3ccccc32)cc1)c1ccccc1-c1ccccc1` (racemic) [Compound 58, (RS)-2-Phenyl-N-[4-(1,3,4,12a-tetrahydro-6H-[1,4]pyrazino[4,3-a][1,4]-benzodiazepin-11(12H)-yl-carbonyl)phenyl]benzamide], the “V2 Bdg % inh” value is “(33%/0.1 uM)”.
The same measure, in the same setting: the same measure for `CC(C)N1CCN2Cc3ccccc3N(C(=O)c3ccc(NC(=O)c4ccccc4-c4ccccc4)cc3Cl)CC2C1` (racemic) [Compound 60, (RS)-2-Phenyl-N-[3-chloro-4-(1,3,4,12a-tetrahydro-2-isopropyl-6H-[1,4]pyrazino[4,3-a][1,4]-benzodiazepin-11(12H)-yl-carbonyl)phenyl]benzamide]: “(25%/0.1 uM)”.
On to `Cc1cccc(C(=O)Nc2ccc(C(=O)N3CC4CN(C)CCN4Cc4ccccc43)c(Cl)c2)c1C` (racemic) [Compound 62, (RS)-2,3-Dimethyl-N-[3-chloro-4-(1,3,4,12a-tetrahydro-2-methyl-6H-[1,4]pyrazino[4,3-a][1,4]-benzodiazepin-11(12H)-yl-carbonyl)phenyl]benzamide], for which the “V2 Bdg % inh” value was 28% and 48%.
Same read-out and setting: the result for `CN1CCN2Cc3ccccc3N(C(=O)c3ccc(NC(=O)c4ccccc4F)cc3Cl)CC2C1` (racemic) [Compound 64, (RS)-2-Fluoro-N-[3-chloro-4-(1,3,4,12a-tetrahydro-2-methyl-6H-[1,4]pyrazino[4,3-a][1,4]-benzodiazepin-11(12H)-yl-carbonyl)phenyl]benzamide] reads 0% and 5%; that for `CN1CCN2Cc3ccccc3N(C(=O)c3ccc(NC(=O)c4cccc(Cl)c4F)cc3Cl)CC2C1` (racemic) [Compound 65, (RS)-2-Fluoro-3-chloro-N-[3-chloro-4-(1,3,4,12a-tetrahydro-2-methyl-6H-[1,4]pyrazino[4,3-a][1,4]-benzodiazepin-11(12H)-yl-carbonyl)phenyl]benzamide], “(17%/0.1 uM)”; that for `Cc1ccc(-c2ccccc2C(=O)Nc2ccc(C(=O)N3CC4CN(C)CCN4Cc4ccccc43)c(Cl)c2)cc1` (racemic) [Compound 66, (RS)-2-(4-Methyl-phenyl)-N-[3-chloro-4-(1,3,4,12a-tetrahydro-2-methyl-6H-[1,4]pyrazino[4,3-a][1,4]-benzodiazepin-11(12H)-yl-carbonyl)phenyl]benzamide], “(82%/0.1 uM)”.
For `COc1cc(C(=O)N2CC3CN(C)CCN3Cc3ccccc32)ccc1NC(=O)c1ccccc1-c1ccc(C)cc1` (racemic) [Compound 73, (RS)-2-(4-Methyl-phenyl)-N-[2-methoxy-4-(1,3,4,12a-tetrahydro-2-methyl-6H-[1,4]pyrazino[4,3-a][1,4]-benzodiazepin-11(12H)-yl-carbonyl)phenyl]benzamide], the IC50 is 43 nM and the inhibition at 0.1 µM was found to be 73%.
For `Cc1ccccc1C(=O)Nc1ccc(C(=O)N2CC3CN(C)CCN3Cc3ccccc32)c(C(F)(F)F)c1` (racemic) [Compound 74, (RS)-2-M ethyl-N-[3-trifluoromethyl-4-(1,3,4,12a-tetrahydro-2-methyl-6H-[1,4]pyrazino[4,3-a][1,4]-benzodiazepin-11(12H)-yl-carbonyl)phenyl]benzamide], the “V2 Bdg % inh” value was “(4%/0.1 uM)”.
Turning to `CN1CCN2Cc3ccccc3N(C(=O)c3ccc(NC(=O)c4ccccc4-c4ccccc4)cc3C(F)(F)F)CC2C1` (racemic) [Compound 75, (RS)-2-Phenyl-N-[3-trifluoromethyl-4-(1,3,4,12a-tetrahydro-2-methyl-6H-[1,4]pyrazino[4,3-a][1,4]-benzodiazepin-11(12H)-yl-carbonyl)phenyl]benzamide], the “V2 Bdg % inh” value is reported as “(2%/0.1 uM)”.
As to `Cc1ccc(-c2ccccc2C(=O)Nc2ccc(C(=O)N3CC4CN(C)CCN4Cc4ccccc43)cc2C)cc1` (racemic) [Compound 79, (RS)-2-(4-Methyl-phenyl)-N-[2-methyl-4-(1,3,4,12a-tetrahydro-2-methyl-6H-(1,4]pyrazino[4,3-a][1,4]-benzodiazepin-11(12H)-yl-carbonyl)phenyl]benzamide], the “V2 Bdg % inh” value is listed as “(33%/0.1 uM)”.
Take `O=C(Nc1ccc(C(=O)N2CC3CSCCN3Cc3ccccc32)c(Cl)c1)c1cc(F)ccc1-c1ccccc1` (racemic) [Compound 104, (RS)-2-Phenyl-5-fluoro-N-[3-chloro-4-(1,3,4,12a-tetrahydro-6H-[1,4]thiazino[4,3-a][1,4]-benzodiazepin-11(12H)-yl-carbonyl)phenyl]benzamide]: the IC50 is 79 nM.
On to `O=C(Nc1ccc(C(=O)N2CC3CSCCN3Cc3ccccc32)c(Cl)c1)c1ccc(F)cc1-c1ccccc1` (racemic) [Compound 105, (RS)-2-Phenyl-4-fluoro-N-[3-chloro-4-(1,3,4,12a-tetrahydro-6H-[1,4]thiazino[4,3-a][1,4]-benzodiazepin-11(12H)-yl-carbonyl)phenyl]benzamide], for which the IC50 is 8 nM.
For the compound `O=C(Nc1ccc(C(=O)N2CC3CSCCN3Cc3ccccc32)c(F)c1)c1ccccc1-c1ccccc1` (racemic) [Compound 106, (RS)-2-Phenyl-N-[3-fluoro-4-(1,3,4,12a-tetrahydro-6H-[1,4]thiazinol[4,3-a][1,4]-benzodiazepin-11(12H)-yl-carbonyl)phenyl]benzamide], the IC50 is 22 nM.
